# In patent US9102613B2, “Method for producing sorbic anhydride and also use thereof as a preservative in foods” (LANXESS DEUTSCHLAND GMBH, priority 2010, dated 2015):
# Assay: preservative action in foods (e.g. fruit drinks)
compound,measurement,setting,value
C/C=C/C=C/C(=O)OC(=O)/C=C/C=C/C [all-E-sorbic anhydride],preservation action relative to sorbic acid or sorbate,"compared with sorbic acid or sorbate, preservative for foods",approximately five times higher
C/C=C/C=C/C(=O)OC(=O)/C=C/C=C/C [sorbic anhydride],preservative action relative to potassium sorbate,"compared with e.g. potassium sorbate, preservation of foods",about 5 times
